# According to PubChem BioAssay AID488890 (Southern Research Specialized Biocontainment Screening …, 2010):
# Records with an inconclusive call do not appear. The source made the active and inactive calls. No rule for the calls is given here.
# Tested on: Mycobacterium tuberculosis non-replicating, growth inhibition
# Test: growth inhibition of non-replicating M. tuberculosis (AID 488890)
row,Structure (SMILES),IC50
1,Cn1cccc1/C=N\NC(=O)C1COc2ccccc2O1 (stereo not given),13.2 µM (inactive)
2,O=C(NCCCN1CCCC1)c1cc2c(Cl)nc3ccccc3c2s1,10.5 µM (inactive)
3,CCOC(=O)COc1ccc2c(=O)cc(-c3ccccc3)oc2c1,0.83 µM
4,O=C(Nc1nnc(-c2ccc(Cl)cc2)o1)c1cccc(N2C(=O)CCC2=O)c1,22.3 µM (inactive)
5,CC(/C=C/c1ccco1)=N\NC(=O)c1cccc(Cl)c1,4.86 µM
6,O=C(Nc1ccn(Cc2ccccc2)n1)c1ccc(F)cc1,14.8 µM (inactive)
7,CNC(=O)COC(=O)c1ccc(-c2nc3ccccc3s2)s1,4.97 µM
8,Cc1cc(C)nc(/N=C(\N)Nc2ccc(-c3ccccc3)cc2)n1,3.5 µM
9,Cn1c(=O)[nH]c(=O)c2c1nc([N+](=O)[O-])n2Cc1ccccc1,4.58 µM
10,CC1(C)CC(=O)C2=C(C1)OC(N)=C([N+](=O)[O-])C2c1ccc(C#N)s1 (stereo not given),11.1 µM (inactive)
11,O=C(Nc1nc2ccccc2n1CCN1CCCC1)C1CCCCC1,17.8 µM (inactive)
12,Cc1ccc(S(=O)(=O)NCC(=O)OCCOc2cccc(Cl)c2)cc1,27.7 µM (inactive)
13,CC1Cc2cc(/C=C3/SC(=S)NC3=O)ccc2O1 (stereo not given),3.01 µM
14,Cc1cccc(NC(=O)CCSc2nnc(Cc3ccccc3)o2)c1,4.09 µM
15,Oc1cc(NCc2cccnc2)ccc1-c1nc2ccccc2o1,47.1 µM (inactive)
16,O=C(c1nnc(-c2ccc(Cl)cc2)o1)C1CCCC1,11.4 µM (inactive)
17,O=C(Nc1nnc(-c2ccc(Br)cc2)o1)C1=COCCO1,24.6 µM (inactive)
18,CC1CCN(CCOCCSc2ccc(Cl)cc2)CC1,19.7 µM (inactive)
19,O=C(NNc1nc2ccccc2s1)c1ccc(F)cc1,43.8 µM (inactive)
20,Oc1ccc(Br)cc1-c1ccn[nH]1,1.71 µM

row,Structure (SMILES),IC50
1,Cc1cccc(NCCC(=O)c2ccc([N+](=O)[O-])cc2)c1C,3.58 µM
2,COc1ccc(C(=O)CCS(=O)(=O)c2ccc(C)cc2)cc1OC,4.05 µM
3,CCCCOC(=O)c1ccc(OC(=O)c2cccnc2)cc1,13.4 µM (inactive)
4,O=C(N/N=C/c1ccc([N+](=O)[O-])s1)c1cccnc1,4.48 µM
5,Cc1ccc(CC(=O)N2CCN(c3ccc([N+](=O)[O-])cc3)CC2)cc1,16 µM (inactive)
6,CCN(CC)CCCN(C(=O)c1ccco1)c1nc(-c2ccc(C)cc2)cs1,21.9 µM (inactive)
7,COc1ccc(N=N/C(=C\O)C(=O)c2cccs2)cc1,9.69 µM
8,CC1N(C)c2cccc3cccc(c23)N1C,36.8 µM (inactive)
9,O=[N+]([O-])c1cncc([N+](=O)[O-])c1Nc1cccc(O)c1,22.3 µM (inactive)
10,Nc1ccccc1C(=O)NNC1=C(C(=O)C(F)(F)F)CCC1,14.7 µM (inactive)
11,CN1/C(=C\C(=O)COC(=O)c2ccc([N+](=O)[O-])o2)C(C)(C)c2ccccc21,3.61 µM
12,O=C(OCC(=O)N1CCc2ccccc2C1)c1cccc([N+](=O)[O-])c1,9.6 µM
13,Cc1cccc(OCC(=O)NNC(=O)c2cc3ccccc3oc2=O)c1,6.13 µM
14,Cc1cc(-c2c(C)[nH]n(-c3ccccc3)c2=O)n[nH]1,29.2 µM (inactive)
15,COc1ccc2c(c1)sc(=N)n2C,19.3 µM (inactive)
16,CC(C)c1ccc2c(c1)C(N1CCNCC1)Cc1ccc(F)cc1S2 (stereo not given),14.5 µM (inactive)
17,CCN(CC)c1ccc2c(c1)oc(=O)c1c(Cl)cc(=O)oc12,3.7 µM
18,CCOC(=O)C1=C(c2ccccc2)NC(N)=NC1c1ccc(OCc2ccc(Cl)cc2)c(OC)c1 (stereo not given),4.25 µM
19,O=C(COc1ccccc1)NCCSCc1ccc(Cl)cc1,16.4 µM (inactive)
20,O=C(N/N=C/c1ccc([N+](=O)[O-])s1)c1ccccc1,5.44 µM
